Data reported in patent US20210113687A1, “METHODS FOR TREATING INFLAMMATION” (NEW YORK UNIVERSITY, priority 2013, published 2021).

Tests used:
BMDM [1] = assay: qRT-PCR of BMDM (palmitate, cytokines, adipocyte conditioned media); format: cell-based, mouse; details: BMDMs, palmitate conjugated to BSA
Protocol: (§1) Real-time Quantitative RT-PCR Analysis RNA (0.5-1 μg) was reverse transcribed using iScript™ cDNA Synthesis Kit (Biorad) and RT-PCR analysis was conducted using kapa SYBR green Supermix (kappa syber) and a Mastercycler Realplex (Eppendorf) the primers used are listed. Fold change in mRNA expression was calculated using the comparative cycle method (ΔΔCt).
(§2) Cell culture. Primary bone marrow derived macrophage (BMDM) was prepared by flushing the bone marrow of the tibia and femur of 6-8 week old C57/B6 mice. The cells were grown in DMEM supplemented with 15% L929-conditioned media, 10% FBS and 1% penicillin/streptomycin for 7 days. BMDM were stimulated 250 pM palmitate conjugated with BSA or BSA as a control for 24 hours, or TNFα (10 ng/ml, 410-MT-010; R&D systems), IL-6 (40 nglml, 406-ML-005; R&D systems) and IL-4 (1 Onglml, 404-ML-010; R&D systems) for 24 h. In some assays, differentiated BMDM were treated with conditioned media from 3T3-L1 adipocytes differentiated as described (Lin, et al., J Biol Chem, 2005; 280:4617-4626) and treated with 250 pM palmitate conjugated with BSA or BSA for 24 hours. In certain experiments, anti-TNFα (0.4 μg/ml, AF-410-NA, R&D systems) or anti-IL-6 (0.025 μg/ml, MAB406; R&D systems) blocking antibody or IgG control (Normal Goat IgG: AB-108-C, Rat IgG1: MAB005; R&D systems) was added to conditioned media. Peritoneal macrophages were isolated as described (van Gils, et al., Nat Immunol, 2012; 13:136-143). Mice were injected intraperitoneally with 1 ml of 3% (wt/vol) thioglycolate to elicit sterile sterile peritonitis with macrophage numbers peaking on day 4. Cells were collected by lavage and used for migration assays.
Palmitate-BSA preparation. Sodium palmitate (P9767; Sigma Aldrich) was dissolved in sterile water in to make a 100-mM solution by alternating heating and vortexing until the palmitate was dissolved. Thu occurred once the solution reached 70 C. […]

[2] = tested on: human NTNI promoter-luciferase reporter; assay: NTN1 promoter-luciferase assay (Example 4); format: cell-based; details: HEK293 cells
Protocol: (§3) Promoter-Luciferase assays. HEK293T cells were transfected with human NTNI or Unc5H2 promoter-luciferase reporter constructs (SwitchGear Genomics) using Lipofectamine™ 2000 (11668-019, Invitrogen) After transfection, media was changed and cells were treated with palmitate or BSA for 24 hours, in the presence or absence of the NFkB inhibitor BAY 11-7082 (10 μmol/L). Luciferase activity was measured using the DUAL-Glo Luciferase Assay system (E1910, Promega).

[3] = tested on: human Unc5H2 promoter-luciferase reporter; assay: Unc5H2 promoter-luciferase assay (Example 4); format: cell-based; details: HEK293 cells
Protocol: as §3

BMDM [4] = assay: netrin-1 ELISA of BMDM supernatants; format: cell-based, mouse
Protocol: as §2, with “Peritoneal macrophages were isolated as described (van Gils, et al., Nat Immunol, 2012; 13:136-143). Mice were injected intraperitoneally with 1 ml of 3% (wt/vol) thioglycolate to elicit sterile sterile peritonitis with macrophage numbers peaking on day 4. Cells were collected by lavage and used for migration assays.” left out
ELISA assay. Insulin (90080; crystal Chem Inc), adiponectin (ab108785; Abeam), FFA (SFA-1; Zen Bio), TNFa (88-7064-76; ebiosciences) and netrin-1 (E91827Mu; USCN life science Inc) levels were measured in the serum using mouse standards according to manufacturer's guidelines. Netrin-1 in human serum was measured using a human-specific netrin-1 ELISA from USCN Life Science Inc (700176; mybiosource).

3T3L1 adipocytes = assay: qRT-PCR of 3T3L1 adipocytes; format: cell-based; details: palmitate treatment
Protocol: as §1
as §2, with “Peritoneal macrophages were isolated as described (van Gils, et al., Nat Immunol, 2012; 13:136-143). Mice were injected intraperitoneally with 1 ml of 3% (wt/vol) thioglycolate to elicit sterile sterile peritonitis with macrophage numbers peaking on day 4. Cells were collected by lavage and used for migration assays.” left out

peritoneal macrophages = assay: Migration of palmitate-treated peritoneal macrophages to CCL19; format: cell-based, mouse; details: treatment with palmitate
Protocol: as §2, with “Mice were injected intraperitoneally with 1 ml of 3% (wt/vol) thioglycolate to elicit sterile sterile peritonitis with macrophage numbers peaking on day 4. Cells were collected by lavage and used for migration assays.” left out
Migration. The migration of ATM or peritoneal macrophages to CCL19 (500 ng/ml; R&D Systems) was assessed by the xCelligence Real-time Cell Invasion and Migration system (ACEA biosciences Inc) that monitored chemotaxis every 5 minutes for over 6 h. […]

BMDM [5] = assay: BMDM migration towards MCP-1 (xCelligence); format: cell-based, mouse; details: CoCl2-treated vs control macrophages
Protocol: Macrophage chemotaxis was measured using the Real-Time Cell Invasion and Migration xCelligence Assay System with monitoring every 3 min (Roche Applied Science). BMDM migration towards MCP-1 (100 ng/ml; R&D Systems) was measured in the presence or absence of oxLDL (50 μg/ml) and/or recombinant rat UNC5b-Fc chimera (1006-UN; R&D Systems) to block the effects of netrin-1. In a subset of experiments, cells were pre-treated with 0.1 mmol/L CoCl2 for 1 h prior to migration. J774 macrophage migration was carried out in the presence or absence of UNC5b-Fc chimera. Results of chemotaxis assays are representative of at least three independent experiments performed on triplicate samples.

BMDMs = assay: qPCR of Sema3e mRNA in macrophages; format: cell-based, mouse; details: BMDM, CoCl2
Protocol: Total RNA was isolated from cells using TRIzol Reagent (Invitrogen). RNA (1 μg) was reverse-transcribed with an iScript cDNA Synthesis kit according to the manufacturer's instructions (Bio-Rad). KAPA SYBR FAST qPCR Master Mix was used for RT-PCR analysis. Primers used are listed in supplemental Table I. The change in mRNA expression was calculated by the comparative change in cycle method (ΔΔCT). All data were normalized to GAPDH or 28S and were expressed as fold change over the control.
RAW264.7 cells were obtained from American Type Culture Collection. Peritoneal macrophages (pMø) were collected from mice by peritoneal lavage 4 d after intraperitoneal injection of 3% (wt/vol) thioglycollate as previously described (Kunjathoor, et al., J Biol Chem., 2002, 277:49982-49988). Bone marrow derived macrophages (BMDMs) were prepared from mice as previously described (Kunjathoor, et al., J Biol Chem., 2002, 277:49982-49988). For gene expression experiments, macrophages were plated at 1×10^6 cells/well in 6 well plates. CoCl2 (0.1M solution) was obtained from Sigma and used at the concentrations indicated to mimic hypoxia. Oxidation or acetylation of LDL (50 μg/mL; Biomedical Technologies) was performed as described (Kunjathoor, et al., J Biol Chem., 2002, 277:49982-49988). Recombinant IL-4 and IFN-γ were purchased from PeproTech. Ultrapure LPS from E. coli K12 was purchased from InvivoGen.

SMILES | increase in Ntn1 mRNA (BMDM [1]) [fold] | increase in Unc5b mRNA (BMDM [1]) [fold] | activity of Ntn1-promoter luciferase reporter [2] | activity of Unc5b-promoter luciferase reporter [3] | secretion of netrin-1 by BMDM (ELISA) (BMDM [4]) | Tnfa and Il6 mRNA in adipocytes (3T3L1 adipocytes) | migration of peritoneal macrophages to CCL19 (peritoneal macrophages) | ability of BMDM to migrate to MCP-1 (BMDM [5]) | macrophage Sema3e mRNA increase (BMDMs) [fold]
CCCCCCCCCCCCCCCC(=O)[O-].[Na+] [palmitate, Sodium palmitate] | 5 | 3 | induced the activity | induced the activity | induced secretion | induced expression | blocked the migration | – | –
[Cl][Co][Cl] [CoCl2, Cobalt chloride] | – | – | – | – | – | – | – | strongly impaired | 5
